From ChEMBL document CHEMBL5247670, “TMPRSS2 Inhibitor Discovery Facilitated through an In Silico and Biochemical Screening Platform” (ACS Med Chem Lett, 2023)
The source made the active and inactive calls. The calls are words filed in the database; no cut-off is given here.

What was measured:
[1] = target: Transmembrane protease serine 2 (Homo sapiens, UniProt O15393); assay: Inhibition of TMPRSS2 (106 to 492 residues) (unknown origin) using Boc-QAR-AMC as substrate measured for 20 mins by spectrophotometer analysis
[2] = tested on: Calu-3; assay: Cytotoxicity against human Calu-3 cells assessed as reduction in cell viability; assay type: functional
[3] = tested on: SARS-CoV-2; assay: Antiviral activity against SARS-CoV-2 B.1.1.7 infected in human Calu-3 cells assessed as inhibition of viral infection preincubated for 1 hr followed by viral infection measured after 48 hrs by Hoechst 33342 staining based analysis; assay type: functional, organism-based; settings: Severe acute respiratory syndrome coronavirus 2, B.1.1.7, Calu-3
[4] = tested on: SARS-CoV-2; assay: Antiviral activity against SARS-CoV-2 B.1.1.7 infected in human Caco-2 cells assessed as inhibition of viral infection preincubated for 1 hr followed by viral infection measured after 48 hrs by Hoechst 33342 staining based analysis; assay type: functional, organism-based; settings: Severe acute respiratory syndrome coronavirus 2, time 49.0 hrs
[5] = tested on: Calu-3; assay: Cytotoxicity against human Calu-3 cells assessed as reduction in cell viability upto 500 uM measured after 48 hrs by Hoechst 33342 staining based analysis; assay type: toxicity; settings: calu-3, 48 h

Chain of Transmembrane protease serine 2 (O15393 1-255 limits assumed): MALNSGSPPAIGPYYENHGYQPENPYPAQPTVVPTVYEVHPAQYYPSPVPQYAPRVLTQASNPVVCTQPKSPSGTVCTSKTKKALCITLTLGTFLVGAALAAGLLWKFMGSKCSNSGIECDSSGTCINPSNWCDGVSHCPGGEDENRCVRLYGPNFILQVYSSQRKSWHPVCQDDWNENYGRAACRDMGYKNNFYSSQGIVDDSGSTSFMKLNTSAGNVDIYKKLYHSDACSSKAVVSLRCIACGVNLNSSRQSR
Chain of Transmembrane protease serine 2 (O15393 256-492 limits assumed): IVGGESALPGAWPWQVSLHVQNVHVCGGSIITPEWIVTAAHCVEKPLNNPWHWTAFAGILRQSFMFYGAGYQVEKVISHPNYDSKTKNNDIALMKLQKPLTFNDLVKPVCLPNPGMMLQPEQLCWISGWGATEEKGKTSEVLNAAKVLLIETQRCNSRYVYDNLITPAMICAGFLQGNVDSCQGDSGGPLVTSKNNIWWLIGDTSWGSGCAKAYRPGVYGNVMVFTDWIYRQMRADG

Row | SMILES | IC50 [1] [µM] | CC50 [2] [µM] | IC50 [3] [µM] | Activity [4] | Activity [5]
1 | Cc1ccc(C(=O)Nc2ccc3c(c2)CCN(C(=N)N)C3)cc1 | 4 |  |  |  | 
2 | N=C(N)c1ccc(OCCCOc2ccc(C(=N)N)cc2)cc1 [PROPAMIDINE] |  | > 500 |  |  | 
3 | N=C(N)N1CCc2cc(NC(=O)c3cccc4ccccc34)ccc2C1 | 3.4 |  |  |  | 
4 | N=C(N)N1CCc2cc(NC(=O)c3ccc4ccccc4c3)ccc2C1 | 4 |  |  |  | 
5 | N=C(N)N1CCc2ccccc2C1 [DEBRISOQUIN] | 23 | > 500 | 22 | inactive | Non-Toxic
